Measurements as given in patent US10995359B2, “Method for determining drug-sensitive human cell lines by analysis method in which measurement of activity of two types of protein kinase is used” (NITTO BOSEKI CO., LTD., priority 2015, dated 2021).

Experiments:
Assay in all cases: Drug sensitivity assay (cell growth test), sulforhodamine B
Type in all cases: cell-based
Settings in all cases: Homo sapiens, 72 hours, read-out: inhibition rate (%) by trametinib, classification by grid analysis
[1] = system: MDA-MB-468 (BL1) cells
Protocol: (§1) Cultured cells were treated with a MEK inhibitor and a PI3K inhibitor in various concentrations, and cell lines sensitive to MEK and PI3K were classified by calculating a cell growth inhibition rate. The culture method and analysis method are as follows.
(§2) Thirteen types of cells used in the present study, HCC38 (BL1), MDA-MB-231 (MSL), DU4475 (IM), HCC1187 (IM), HCC1143 (BL1), HCC1395 (LAR), HCC1937 (BL1), MDA-MB-453 (LAR), HCC70 (BL2), HS578T (MSL), MDA-MB-157 (MSL) and MDA-MB-468 (BL1), were obtained from American type culture collection (ATCC), and SUM185PE (LAR) was obtained from ASTERAND BIOSCIENCE. All the cells belong to triple negative breast cancer (TNBC), and it is known which of six types (BL1, BL2, M, MSL, IM and LAR) these belong to by an existing classification method.
(§3) All the cells were cultured in a medium designated from a source of supply, and 2 mM L-glutamine and 10% fetal bovine serum (FBS) were supplemented.
(§4) Each type of cells was seeded in a 96 well titer plate at 1×10^4 cells/well, and trametinib, an MEK inhibitor (Medchem Express; 0.08, 0.16, 0.31, 0.63, 1.25, 2.5, 5, 10 and 20 μM), and wortmannin, a PI3K inhibitor (Wako Pure Chemical Industries, Ltd.; 0.08, 0.16, 0.31, 0.63, 1.25, 2.5, 5, 10 and 20 μM) were dissolved in Dimethyl Sulfoxide [DMSO] (Wako Pure Chemical Industries, Ltd.) in various concentrations and treated. In addition, the effect on cell growth was examined at 72 hours after the inhibitor by sulforhodamine B assay (manufactured by SIGMA-ALDRICH), and 50 μL of sulforhodamine B solution was added to each well and cells were left at room temperature for an hour for staining. The staining degree of metabolically survival cells was examined by monitoring absorbance at a wavelength of 565 nm using a microtiter plate. The absorbance of cells which were not treated with trametinib and wortmannin (treated with DMSO) was used as a control and defined as 100% to calculate a cell growth inhibition rate.
(§5) The cell lines were classified into 4 types, cell lines sensitive to wortmannin (hereinafter, PA), cell lines sensitive to trametinib (hereinafter, MA), cell lines resistant to wortmannin and trametinib (hereinafter, R), and others (hereinafter, S). In the classification, first the inhibition rate of each drug was calculated in a concentration of 1 μM, and the inhibition rate (%) by trametinib and the inhibition rate (%) by wortmannin were plotted on the X axis and Y axis respectively on a graph.
as §5, with “100 nM,” for “1 μM,”
as §5, with “10” for “1”, “graph. Using a 50% growth inhibition rate as an index of the inhibitive effect of a drug, cells were classified into 4 types by grid analysis.” for “graph.”

[2] = system: HCC38 (BL1) cells
Protocol: as §1, §2, §3, §4, §5
as §5, with “100 nM,” for “1 μM,”
as §5, with “10” for “1”, “graph. Using a 50% growth inhibition rate as an index of the inhibitive effect of a drug, cells were classified into 4 types by grid analysis.” for “graph.”

[3] = system: SUM185PE (LAR) cells
Protocol: as §1, §2, §3, §4, §5
as §5, with “100 nM,” for “1 μM,”
as §5, with “10” for “1”, “graph. Using a 50% growth inhibition rate as an index of the inhibitive effect of a drug, cells were classified into 4 types by grid analysis.” for “graph.”

[4] = system: HCC1937 (BL1) cells
Protocol: as §1, §2, §3, §4, §5
as §5, with “100 nM,” for “1 μM,”
as §5, with “10” for “1”, “graph. Using a 50% growth inhibition rate as an index of the inhibitive effect of a drug, cells were classified into 4 types by grid analysis.” for “graph.”

[5] = system: HCC1395 (LAR) cells
Protocol: as §1, §2, §3, §4, §5
as §5, with “100 nM,” for “1 μM,”
as §5, with “10” for “1”, “graph. Using a 50% growth inhibition rate as an index of the inhibitive effect of a drug, cells were classified into 4 types by grid analysis.” for “graph.”

[6] = system: MDA-MB-453 (LAR) cells
Protocol: as §1, §2, §3, §4, §5
as §5, with “100 nM,” for “1 μM,”
as §5, with “10” for “1”, “graph. Using a 50% growth inhibition rate as an index of the inhibitive effect of a drug, cells were classified into 4 types by grid analysis.” for “graph.”

[7] = system: HCC1187 (IM) cells
Protocol: as §1, §2, §3, §4, §5
as §5, with “100 nM,” for “1 μM,”
as §5, with “10” for “1”, “graph. Using a 50% growth inhibition rate as an index of the inhibitive effect of a drug, cells were classified into 4 types by grid analysis.” for “graph.”

[8] = system: MDA-MB-231 (MSL) cells
Protocol: as §1, §2, §3, §4, §5
as §5, with “100 nM,” for “1 μM,”
as §5, with “10” for “1”, “graph. Using a 50% growth inhibition rate as an index of the inhibitive effect of a drug, cells were classified into 4 types by grid analysis.” for “graph.”

[9] = system: HCC1143 (BL1) cells
Protocol: as §1, §2, §3, §4, §5
as §5, with “100 nM,” for “1 μM,”
as §5, with “10” for “1”, “graph. Using a 50% growth inhibition rate as an index of the inhibitive effect of a drug, cells were classified into 4 types by grid analysis.” for “graph.”

[10] = system: HCC70 (BL2) cells
Protocol: as §1, §2, §3, §4, §5
as §5, with “100 nM,” for “1 μM,”
as §5, with “10” for “1”, “graph. Using a 50% growth inhibition rate as an index of the inhibitive effect of a drug, cells were classified into 4 types by grid analysis.” for “graph.”

CC(=O)Nc1cccc(-n2c(=O)n(C3CC3)c(=O)c3c(Nc4ccc(I)cc4F)n(C)c(=O)c(C)c32)c1 [trametinib]
inhibition at 0.1 µM ([1]; MDA-MB-468, 100 nM, index 12.5% growth inhibition rate): < 12.5% | inhibition at 1 µM ([1]; MDA-MB-468, 1 μM, index 25% growth inhibition rate): < 25% | inhibition at 10 µM ([1]; MDA-MB-468, 10 μM, index 50% growth inhibition rate): < 50% | inhibition at 0.1 µM ([2]; HCC38, 100 nM, index 12.5% growth inhibition rate): > 12.5% | inhibition at 1 µM ([2]; HCC38, 1 μM, index 25% growth inhibition rate): > 25% | inhibition at 10 µM ([2]; HCC38, 10 μM, index 50% growth inhibition rate): > 50% | inhibition at 0.1 µM ([3]; 100 nM, index 12.5% growth inhibition rate): < 12.5% | inhibition at 1 µM ([3]; 1 μM, index 25% growth inhibition rate): < 25% | inhibition at 10 µM ([3]; 10 μM, index 50% growth inhibition rate): < 50% | inhibition at 0.1 µM ([4]; HCC1937, 100 nM, index 12.5% growth inhibition rate): < 12.5% | inhibition at 1 µM ([4]; HCC1937, 1 μM, index 25% growth inhibition rate): < 25% | inhibition at 10 µM ([4]; HCC1937, 10 μM, index 50% growth inhibition rate): < 50% | inhibition at 0.1 µM ([5]; HCC1395, 100 nM, index 12.5% growth inhibition rate): < 12.5% | inhibition at 1 µM ([5]; HCC1395, 1 μM, index 25% growth inhibition rate): < 25% | inhibition at 10 µM ([5]; HCC1395, 10 μM, index 50% growth inhibition rate): < 50% | inhibition at 0.1 µM ([6]; MDA-MB-453, 100 nM, index 12.5% growth inhibition rate): > 12.5% | inhibition at 1 µM ([6]; MDA-MB-453, 1 μM, index 25% growth inhibition rate): > 25% | inhibition at 10 µM ([6]; MDA-MB-453, 10 μM, index 50% growth inhibition rate): > 50% | inhibition at 0.1 µM ([7]; HCC1187, 100 nM, index 12.5% growth inhibition rate): > 12.5% | inhibition at 1 µM ([7]; HCC1187, 1 μM, index 25% growth inhibition rate): > 25% | inhibition at 10 µM ([7]; HCC1187, 10 μM, index 50% growth inhibition rate): > 50% | inhibition at 0.1 µM ([8]; MDA-MB-231, 100 nM, index 12.5% growth inhibition rate): > 12.5% | inhibition at 1 µM ([8]; MDA-MB-231, 1 μM, index 25% growth inhibition rate): > 25% | inhibition at 10 µM ([8]; MDA-MB-231, 10 μM, index 50% growth inhibition rate): > 50% | inhibition at 0.1 µM ([9]; HCC1143, 100 nM, index 12.5% growth inhibition rate): > 12.5% | inhibition at 1 µM ([9]; HCC1143, 1 μM, index 25% growth inhibition rate): > 25% | inhibition at 10 µM ([9]; HCC1143, 10 μM, index 50% growth inhibition rate): > 50% | inhibition at 0.1 µM ([10]; HCC70, 100 nM, index 12.5% growth inhibition rate): > 12.5% | inhibition at 1 µM ([10]; HCC70, 1 μM, index 25% growth inhibition rate): > 25% | inhibition at 10 µM ([10]; HCC70, 10 μM, index 50% growth inhibition rate): > 50%
